The target of data set [1] is MMP-9 (human leukocyte gelatinase) (Homo sapiens (Human), UniProt P14780). As to the kind of experiment: MMP-9 inhibition in vitro, octapeptide substrate, HPLC. The class given is biochemical. The conditions noted are these: read-out: Maximum Inhibition At 100 μM compound (MMP-9). The text has this: In contrast all three chemically-modified curcumins at 100 μm final concentration inhibited gelatinase activity by 68-100% (FIG. 6 and Table 6).

The target of a further data set is MMP-2 (Homo sapiens (Human), UniProt P08253). Put plainly: MMP-2 inhibition in vitro, octapeptide substrate, HPLC. In kind it is biochemical. Particulars: for inhibition at 100 µM: read-out: MMP-2 Maximum Inhibition @100 μM; for MMP-2 Ratio (IC50 test compound/IC50 standard): standard 1,10-phenanthroline.
Another data set deals with MMP-13 (Collagenase-3) (Homo sapiens (Human), UniProt P45452). As to the kind of experiment: MMP-13 inhibition in vitro, octapeptide substrate, HPLC. Particulars: for inhibition at 100 µM: read-out: MMP-13 Maximum Inhibition @100 μM; for MMP-13 Ratio (IC50 test compound/IC50 standard): standard 1,10-phenanthroline. In kind it is biochemical.
A short description of data set [2]: Solubility in aqueous solutions. The class given is physicochemical. Particulars: comparative.
The subject of another data set is human monocytes. As to the kind of experiment: Cytotoxicity in human monocytes (MTS). The class given is cell-based. As for the experimental part: Briefly, human peripheral blood monocytes (HMs) were isolated from a leukocyte concentrate by density gradient centrifugation (Lymphoprep) and the isolated HMs cultured (2 h, 37° C.) to remove non-adherent cells. […] After incubation, the proinflammatory cytokines, TNFα, […], MCP-1 and IL-6 were measured in the conditioned media by ELISA and cytotoxicity was assessed by measuring the absorbance (490 nm) of formazan produced by reduction of MTS. The HMs alone±0.1-0.5% DMSO produced minimal levels of these pro-inflammatory cytokines. However, addition of 100 ng/ml or 10 μg/ml of LPS both dramatically stimulated cytokine production.

The next data set deals with TNF-α. As to the kind of experiment: Inhibition of TNF-α production by LPS-stimulated monocytes. Particulars: Homo sapiens, Monocyte, 18 h, read-out: % Inhibition of TNF-α produced by stimulated Monocytes with LPS @ 18 h. The class given is cell-based, human. As for the experimental part:
Briefly, human peripheral blood monocytes (HMs) were isolated from a leukocyte concentrate by density gradient centrifugation (Lymphoprep) and the isolated HMs cultured (2 h, 37° C.) to remove non-adherent cells. The adherent HMs wore cultured for 18 h (1×10^6 cells/well, 24-well plates)±endotoxin (LPS)±different compounds dissolved in DMSO (the final concentration of DMSO in the RPMI serum-free culture media with Pen./Strep. antibiotics was no greater than 0.5%). After incubation, the proinflammatory cytokines, TNFα, […], MCP-1 and IL-6 were measured in the conditioned media by ELISA and cytotoxicity was assessed by measuring the absorbance (490 nm) of formazan produced by reduction of MTS. The HMs alone±0.1-0.5% DMSO produced minimal levels of these pro-inflammatory cytokines. However, addition of 100 ng/ml or 10 μg/ml of LPS both dramatically stimulated cytokine production.
The cytokine levels were measured by Luminex multiplex, a method that allows the simultaneous measurement of different biological markers.

Some results are limits rather than exact numbers.

Chain of MMP-2 (P08253 110-660, species assumed): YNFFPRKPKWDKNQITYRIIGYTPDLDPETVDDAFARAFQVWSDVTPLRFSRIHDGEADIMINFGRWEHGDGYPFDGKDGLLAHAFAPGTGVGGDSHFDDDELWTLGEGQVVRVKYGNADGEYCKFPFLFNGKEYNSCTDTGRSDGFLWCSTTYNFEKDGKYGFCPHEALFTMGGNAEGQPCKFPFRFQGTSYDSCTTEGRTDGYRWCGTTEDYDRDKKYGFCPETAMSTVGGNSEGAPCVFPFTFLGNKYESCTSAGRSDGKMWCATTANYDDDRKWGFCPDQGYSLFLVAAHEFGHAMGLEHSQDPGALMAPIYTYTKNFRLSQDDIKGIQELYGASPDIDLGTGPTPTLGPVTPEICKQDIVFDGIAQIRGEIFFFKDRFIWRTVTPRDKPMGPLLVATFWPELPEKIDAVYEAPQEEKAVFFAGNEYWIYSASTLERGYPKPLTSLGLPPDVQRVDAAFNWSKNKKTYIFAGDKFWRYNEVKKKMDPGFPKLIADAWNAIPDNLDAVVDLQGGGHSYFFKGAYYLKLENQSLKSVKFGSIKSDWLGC
Chain of MMP-9 (human leukocyte gelatinase) (P14780 94-707): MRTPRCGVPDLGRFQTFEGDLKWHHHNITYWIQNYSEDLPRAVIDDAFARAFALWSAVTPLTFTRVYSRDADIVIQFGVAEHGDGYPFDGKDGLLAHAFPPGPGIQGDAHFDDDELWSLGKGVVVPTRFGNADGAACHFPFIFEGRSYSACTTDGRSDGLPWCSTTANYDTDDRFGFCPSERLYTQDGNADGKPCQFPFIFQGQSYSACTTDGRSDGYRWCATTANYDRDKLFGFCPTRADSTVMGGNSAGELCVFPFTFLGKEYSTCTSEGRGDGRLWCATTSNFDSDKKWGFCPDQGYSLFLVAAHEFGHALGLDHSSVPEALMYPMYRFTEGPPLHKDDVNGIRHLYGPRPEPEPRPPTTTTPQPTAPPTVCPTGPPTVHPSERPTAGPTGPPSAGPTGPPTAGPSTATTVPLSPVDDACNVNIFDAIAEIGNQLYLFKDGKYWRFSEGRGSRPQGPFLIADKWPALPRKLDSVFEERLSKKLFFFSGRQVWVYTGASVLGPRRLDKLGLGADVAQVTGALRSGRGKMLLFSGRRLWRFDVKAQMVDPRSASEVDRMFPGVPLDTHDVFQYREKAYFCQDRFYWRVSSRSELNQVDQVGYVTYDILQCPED

Take `c1cnc2c(c1)ccc1cccnc12` [1,10-phenanthroline, 1,10-O-phenanthroline, reference compound]: the inhibition (commonly how much of the control response was suppressed) at 100 µM in data set [1] amounted to 100%. Further, at MMP-2, the inhibition at 100 µM is 60% and the “MMP-2 Ratio (IC50 test compound/IC50 standard)” value (shortened to “MMP-2 Ratio”) is listed as 1.0. Besides, at MMP-13 (Collagenase-3), the inhibition at 100 µM was 100% and the “MMP-13 Ratio (IC50 test compound/IC50 standard)” value (shortened to “MMP-13 Ratio”) is given as 1.0.
Consider `COC(=O)C(C(=O)/C=C/c1ccccc1)C(=O)/C=C/c1ccccc1` [Compound 2], for which, in data set [2], the Solubility result was “improved solubility”.
For the molecule `COC(=O)C(C(=O)/C=C/c1ccc(O)cc1)C(=O)/C=C/c1ccc(O)cc1` [Compound 3, 1,7-Bis(4-hydroxyphenyl)-4-methoxycarbonylhepta-1E,6E-dien-3,5-dione], the Solubility entry in data set [2] is “more soluble in aqueous solutions than compound 1”. For the same molecule, the inhibition at 100 µM in data set [1] was 68%. On MMP-2, the inhibition at 100 µM came out at 60% and the “MMP-2 Ratio” value worked out at 1.0. For the same molecule, on MMP-13 (Collagenase-3), the inhibition at 100 µM was determined as 76% and the “MMP-13 Ratio” value is given as 2.0.
Regarding `COc1cc(/C=C/C(=O)CC(=O)/C=C/c2ccc(N(C)C)cc2)ccc1O` [Compound 4], the inhibition at 100 µM in data set [1] was found to be 100%. At MMP-2, the inhibition at 100 µM turned out to be 36% and the “MMP-2 Ratio” value is reported as >3.6. Also, at MMP-13 (Collagenase-3), the inhibition at 100 µM turned out to be 50% and the “MMP-13 Ratio” value was 62.5.
`COc1cc(/C=C/C(=O)C(C(=O)/C=C/c2ccc(O)c(OC)c2)C(=O)Nc2ccccc2)ccc1O` [Compound 6, 1,7-Bis(4-hydroxy-3-methoxyphenyl)-4-N-phenylaminocarbonylhepta-1E,6E-dien-3,5-dione]: the figures for the inhibition at 100 µM at MMP-2 and at MMP-13 (Collagenase-3) were 53% and 100%, respectively.
On to `O=C(/C=C/c1ccc(O)cc1)C(C(=O)/C=C/c1ccc(O)cc1)C(=O)Nc1ccccc1` [Compound 7, 1,7-Bis(4-hydroxyphenyl)-4-N-phenylaminocarbonylhepta-1E,6E-dien-3,5-dione], for which, on MMP-2, the inhibition at 100 µM was 45% and the “MMP-2 Ratio” value is recorded as 1.8. Further, at MMP-13 (Collagenase-3), the inhibition at 100 µM turned out to be 77% and the “MMP-13 Ratio” value is given as <0.3.
With `CN(C)c1ccc(/C=C/C(=O)C(C(=O)/C=C/c2ccc(N(C)C)cc2)C(=O)Nc2ccccc2)cc1` [Compound 8, 1,7-Bis(4-dimethylaminophenyl)-4-N-phenylaminocarbonylhepta-1E,6E-dien-3,5-dione], at MMP-13 (Collagenase-3), the inhibition at 100 µM was 53% and the “MMP-13 Ratio” value is 11.3.
For the molecule `COc1cc(/C=C/C(=O)CC(=O)/C=C/c2ccc(O)c(OC)c2)ccc1O` [Curcumin, curcumin], the “Cytotoxicity Monocytes @ 5 h incubation” value with human monocytes (10 uM) is 10 uM - 0%; with human monocytes (20 uM), 20 uM - 20%; in the data set with human monocytes (50 uM), 50 uM - 50%. Besides, the “Cytotoxicity Monocytes @ 18 h incubation” value with human monocytes (10 uM) was found to be 10 uM - 0%; in the data set with human monocytes (20 uM), 20 uM - 20%; in the data set with human monocytes (50 uM), 50 uM - 77%. Moreover, the “Cytotoxicity in monocyte culture” value in the data set with human monocytes (50 and 100 μM, with some precipitation) was “significant cytotoxicity”. The inhibition at 10 µM in the data set with TNF-α (10 uM) came to 0%. In addition, the inhibition at 20 µM in the data set with TNF-α (20 uM) was 0%. Also, the inhibition at 50 µM with TNF-α (50 uM) amounted to 80%. Besides, the Solubility result in data set [2] was “insoluble”. The results for the inhibition at 100 µM (in data set [1]; on MMP-2) were 58% and 54%, respectively.

Source of the values: US10669227B2 (THE RESEARCH FOUNDATION OF STATE UNIVERSITY OF NEW YORK, priority 2009, dated 2020).
